Data taken from EP0974351A2, “Medicament for preventing and treating gastrointestinal damage” (JOUVEINAL, priority 1998, dated 2000).
“And” between values parts separate entries of the source, which are not always exact repeats. Identical values can stand only once.

Assays:
[1] = tested on: TNBS-Induced Chronic Colonic Allodynia; experiment: TNBS-induced chronic colonic allodynia in rats (colonic distension threshold); assay type: in vivo, Male Sprague-Dawley rats; details: rat, in vivo
Description: GABA analogs were evaluated in rats suffering from chronic visceral allodynia induced by trinitrobenzene sulfonic acid (TNBS).
In humans, digestive disorders are often associated with visceral pain. In these pathologies, the visceral pain threshold is decreased, indicating a visceral hypersensitivity. Consequently, the following study was designed to evaluate the effect of injection of TNBS into the colon on visceral pain threshold in an experimental model of colonic distension.
(§1) Male Sprague-Dawley rats weighing 340 to 400 g were used in the study. The animals were housed three per cage in a regulated environment (20 ± 1°C, 50 ± 5% humidity, with light 8:00 AM to 8:00 PM). Under anethesia (ketamine 80 mg/kg i.p.; acepromazin 12 mg/kg i.p.), TNBS (50 mg/kg), or saline (1.5 mL/kg) was injected into the proximal colon (1 cm from the cecum). After the surgery, animals were individually housed in the regulated environment.
(§2) A balloon catheter (5-6 cm length) was inserted through the anus into the colon and kept in position (tip of balloon 5 cm from the anus) by taping the catheter to the base of the tail. The balloon was progressively inflated by step of 5 mm Hg, from 0 to 75 mm Hg, each step of inflation lasting 30 seconds. Each cycle of colonic distension was controlled by a standard barostat. The threshold corresponds to the pressure which produced the first abdominal contraction, at which time the cycle of distension was discontinued. To determine the colonic threshold, four cycles of distension were performed on the same animal.
In a second series, a group of eight rats treated with TNBS were subjected to a colonic distension session.
In a third series, a group of eight rats treated with TNBS received a subcutaneous (sc) injection of gabapentin or CI-1008 30 minutes prior to initiation of the colonic distension cycle.
(§3) All test compounds were dissolved in saline except TNBS. TNBS was dissolved in EtOH 30% (w/v). Subcutaneous injection of vehicle was given in a volume of […].
(§4) Statistical significance between each group was determined using a one-way ANOVA followed by Student's unpaired t-test. Differences were considered statistically significant at p <0.05.
Pain threshold (pressure of distension inducing the first abdominal contraction) after distal colonic distension was determined at Day 7 in two groups of awake rats: control animals and TNBS-treated animals. […] Inflammatory parameters (colon weight, area of hyperemia and necrosis and colonic myeloperoxidase content) were measured in the proximal colon at Day 7 after TNBS treatment.
Gabapentin (100, 300, and 500 mg/kg sc) and CI-1008 (30, 60, 100, and 200 mg/kg sc) were administered 30 minutes before colonic distension and measurement of the inflammatory parameters.

[2] = tested on: Colonic Threshold in Normal Rats; experiment: Colonic distension pain threshold in normal rats; assay type: in vivo, Male Sprague-Dawley rats; details: rat, in vivo
Description: as §1, §2
In a first series of experiments, a group of eight rats treated with saline were subjected to a colonic distension session.
as §3, §4

SMILES: CN1CC[C@]23c4c5ccc(O)c4O[C@H]2[C@@H](O)C=C[C@H]3[C@H]1C5 [Morphine]
- Colonic Threshold [1]: 34.22 mm Hg and 46.09 mm Hg and 64.84 mm Hg
- TNBS-induced decrease in pain threshold after colonic distension (in words) [1]: completely suppressed
- colonic pain threshold in normal conditions (control animals), in words [2]: significantly increased
